From article PMC10130856 (Heliyon, 2023)

Target: hen egg-white lysozyme (HEWL) (Gallus gallus, UniProt P00698)
Assay: intrinsic tryptophan fluorescence quenching
Type: binding
Details: pH 7.4, 20 mM sodium phosphate, 298.15 K, 5 μM protein; double-log

Sequence of hen egg-white lysozyme (HEWL) (P00698 19-147): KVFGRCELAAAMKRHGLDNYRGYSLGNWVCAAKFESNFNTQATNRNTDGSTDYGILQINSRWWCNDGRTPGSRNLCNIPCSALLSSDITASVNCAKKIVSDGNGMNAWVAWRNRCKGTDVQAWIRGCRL

Kb(M^-1): 2.96 × 10^8±0.21 M^−1
Structure (SMILES): CCCCC(=O)N(Cc1ccc(-c2ccccc2-c2nn[nH]n2)cc1)[C@H](C(=O)O)C(C)C [valsartan]
